# US7501275B2, “Yeast transformation system” (The United States of America as represented by the …, priority 2004, dated 2009)
# Test system: Pichia stipitis UC7 NRRL Y-21448
# Experiment: Testing for sensitivity to Zeocin: plating on YPD pH 7.5 with Zeocin
# Type: cell-based
# Conditions: plated on YPD pH 7.5; Zeocin tested from 25 μg/ml to 500 μg/ml
# Experimental: Pichia stipitis UC7 NRRL Y-21448 (2) is a ura3 auxotrophic mutant of P. stipitis CBS 6054 (ARS Culture Collection, NRRL USDA Peoria, Ill.). To test if Pichia stipitis UC7 is sensitive to Zeocin, UC7 was plated on YPD (Kaiser, Michaelis and Mitchell, 1994) pH 7.5 (1% yeast extract, 2% peptone, 2% dextrose, NaOH to pH 7.5) in the presence of Zeocin (Invitrogen) at a concentration of from 25 μg/ml to 500 μg/ml. Zeocin concentrations of 100 μg/ml or greater killed Pichia stipitis UC7.
smiles,measurement,value
Cc1c(N)nc([C@H](CC(N)=O)NC[C@H](N)C(N)=O)nc1C(=O)N[C@H](C(=O)N[C@H](C)[C@@H](O)[C@H](C)C(=O)N[C@H](C(=O)NCCC1=N[C@@H](c2nc(C(=O)NCCCCN=C(N)N)cs2)CS1)[C@@H](C)O)[C@@H](O[C@@H]1O[C@@H](CO)[C@@H](O)[C@H](O)[C@@H]1O[C@H]1O[C@H](CO)[C@@H](O)[C@H](OC(N)=O)[C@@H]1O)c1cnc[nH]1 [Zeocin],Zeocin concentrations that killed Pichia stipitis UC7,≥ 100 µg/mL
